Columns and labels:
Type in all cases: in vivo
[1] = test system: ducksalad (Heteranthera limosa); test: Test B flooded paddy test, visual plant response rating 0-100; conditions: 250 g ai/ha, Flood, applied to paddy water, evaluated after 13 days
Summary of the method: (§1)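 Visual evaluation after 13 days. Water-applied treatment, 3 cm flood depth held constant, plants at 2-leaf stage at treatment.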

[2] = test system: sedge, umbrella (small-flower umbrella sedge, Cyperus difformis); test: as above; conditions: 250 g ai/ha, Flood, applied to paddy water, evaluated after 13 days
Summary of the method: as §1

[3] = test system: barnyardgrass (Echinochloa crusgalli); test: as above; conditions: 250 g ai/ha, Flood, applied to paddy water, evaluated after 13 days
Summary of the method: as §1

rice (Oryza sativa) = test: as above; conditions: 250 g ai/ha, Flood, applied to paddy water, evaluated after 13 days
Summary of the method: as §1

[4] = test system: ryegrass, Italian (italian ryegrass, Lolium multiflorum); test: Test A postemergence application, visual injury rating 0-100; conditions: 10 days
Summary of the method: (§2)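 Plants were grown in a loam soil-sand blend and treated with test chemical in a non-phytotoxic solvent mixture containing surfactant, either sprayed on soil preemergence or applied postemergence to 2-10 cm plants. After 10 days in a greenhouse, injury was scored visually against untreated controls, 0 meaning no effect and 100 complete control.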

[5] = test system: ragweed (common ragweed, Ambrosia artemisiifolia); test: as above; conditions: 10 days
Summary of the method: as §2

[6] = test system: oat, wild (wild oat, Avena fatua); test: as above; conditions: 10 days
Summary of the method: as §2

corn (Zea mays) [7] = test: as above; conditions: 10 days
Summary of the method: as §2

soybean (Glycine max) [8] = test: as above; conditions: 10 days
Summary of the method: as §2

[9] = test system: blackgrass (Alopecurus myosuroides); test: as above; conditions: 10 days
Summary of the method: as §2

[10] = test system: palmer (palmer amaranth, palmer pigweed, Amaranthus palmeri); test: as above; conditions: 10 days
Summary of the method: as §2

[11] = test system: green foxtail (Setaria viridis); test: as above; conditions: 10 days
Summary of the method: as §2

kochia (Bassia scoparia) [12] = test: as above; conditions: 10 days
Summary of the method: as §2

[13] = test system: wheat (Triticum aestivum); test: as above; conditions: 10 days
Summary of the method: as §2

[14] = test system: barnyardgrass (Echinochloa crus-galli); test: as above; conditions: 10 days
Summary of the method: as §2

[15] = test system: horseweed (Erigeron canadensis); test: as above; conditions: 10 days
Summary of the method: as §2

[16] = test system: galium (catchweed bedstraw, Galium aparine); test: as above; conditions: 10 days
Summary of the method: as §2

[17] = test system: ryegrass, Italian (italian ryegrass, Lolium multiflorum); test: Test A preemergence soil spray, visual injury rating 0-100; conditions: 10 days, 0 = no effect, 100 = complete control
Summary of the method: as §2

[18] = test system: ragweed (common ragweed, Ambrosia artemisiifolia); test: as above; conditions: 10 days, 0 = no effect, 100 = complete control
Summary of the method: as §2

[19] = test system: oat, wild (wild oat, Avena fatua); test: as above; conditions: 10 days, 0 = no effect, 100 = complete control
Summary of the method: as §2

corn (Zea mays) [20] = test: as above; conditions: 10 days, 0 = no effect, 100 = complete control
Summary of the method: as §2

soybean (Glycine max) [21] = test: as above; conditions: 10 days, 0 = no effect, 100 = complete control
Summary of the method: as §2

[22] = test system: blackgrass (Alopecurus myosuroides); test: as above; conditions: 10 days, 0 = no effect, 100 = complete control
Summary of the method: as §2

[23] = test system: palmer (palmer amaranth, palmer pigweed, Amaranthus palmeri); test: as above; conditions: 10 days, 0 = no effect, 100 = complete control
Summary of the method: as §2

[24] = test system: green foxtail (Setaria viridis); test: as above; conditions: 10 days, 0 = no effect, 100 = complete control
Summary of the method: as §2

kochia (Bassia scoparia) [25] = test: as above; conditions: 10 days, 0 = no effect, 100 = complete control
Summary of the method: as §2

[26] = test system: wheat (Triticum aestivum); test: as above; conditions: 10 days, 0 = no effect, 100 = complete control
Summary of the method: as §2

[27] = test system: barnyardgrass (Echinochloa crus-galli); test: as above; conditions: 10 days, 0 = no effect, 100 = complete control
Summary of the method: as §2

[28] = 31 g ai/ha, postemergence, 0 = no effect, 100 = complete control
[29] = Postemergence, 125 g ai/ha, 0 is no effect, 100 is complete control

COC(=O)C1=CCC(NC(=O)C2(C)CN(c3cc(F)cc(F)c3)C(=O)O2)C1 (stereo not shown) [Compound 21]
Plant response rating, Ducksalad (0 to 100 scale, 0 is no effect and 100 is complete control) [1]: 90 | Plant response rating, Sedge, Umbrella (0 to 100 scale, 0 is no effect and 100 is complete control) [2]: 95 | Plant response rating, Barnyardgrass (0 to 100 scale, 0 is no effect and 100 is complete control) [3]: 90 | Plant response rating, Rice (0 to 100 scale, 0 is no effect and 100 is complete control) (rice (Oryza sativa)): 90 | Ryegrass, Italian plant response rating (0-100) [4, 28]: 90 | Ryegrass, Italian plant response rating (0 to 100 scale) [4, 29]: 40 | Ragweed plant response rating (0-100) [5, 28]: 40 | Ragweed plant response rating (0 to 100 scale) [5, 29]: 70 | Oat, Wild plant response rating (0-100) [6, 28]: 90 | Oat, Wild plant response rating (0 to 100 scale) [6, 29]: 100 | Corn plant response rating (0-100) (corn (Zea mays) [7]; [28]): 100 | Corn plant response rating (0 to 100 scale) (corn (Zea mays) [7]; [29]): 100 | Soybean plant response rating (0-100) (soybean (Glycine max) [8]; [28]): 80 | Soybean plant response rating (0 to 100 scale) (soybean (Glycine max) [8]; [29]): 90 | Blackgrass plant response rating (0-100) [9, 28]: 90 | Blackgrass plant response rating (0 to 100 scale) [9, 29]: 100 | Amaranth, Palmer plant response rating (0-100) [10, 28]: 60 | Amaranth, Palmer / Pigweed, Palmer plant response rating (0 to 100 scale) [10, 29]: 90 | Foxtail, Green plant response rating (0-100) [11, 28]: 90 | Foxtail, Green plant response rating (0 to 100 scale) [11, 29]: 90 | Kochia plant response rating (0-100) (kochia (Bassia scoparia) [12]; [28]): 80 | Kochia plant response rating (0 to 100 scale) (kochia (Bassia scoparia) [12]; [29]): 80 | Wheat plant response rating (0-100) [13, 28]: 90 | Wheat plant response rating (0 to 100 scale) [13, 29]: 90 | Barnyardgrass plant response rating (0-100) [14, 28]: 100 | Barnyardgrass plant response rating (0 to 100 scale) [14, 29]: 100 | Horseweed plant response rating (0-100) [15, 28]: 20 | Horseweed plant response rating (0 to 100 scale) [15, 29]: 70 | Galium plant response rating (0-100) [16, 28]: 80 | Galium plant response rating (0 to 100 scale) [16, 29]: 80 | Ryegrass, Italian plant response rating (0-100) ([17]; 31 g ai/ha): 50 | Ryegrass, Italian plant response rating (0 to 100 scale) ([17]; 125 g ai/ha): 90 | Ragweed plant response rating (0-100) ([18]; 31 g ai/ha): 30 | Ragweed plant response rating (0 to 100 scale) ([18]; 125 g ai/ha): 30 | Oat, Wild plant response rating (0-100) ([19]; 31 g ai/ha): 60 | Oat, Wild plant response rating (0 to 100 scale) ([19]; 125 g ai/ha): 80 | Corn plant response rating (0-100) (corn (Zea mays) [20]; 31 g ai/ha): 60 | Corn plant response rating (0 to 100 scale) (corn (Zea mays) [20]; 125 g ai/ha): 90 | Soybean plant response rating (0-100) (soybean (Glycine max) [21]; 31 g ai/ha): 50 | Soybean plant response rating (0 to 100 scale) (soybean (Glycine max) [21]; 125 g ai/ha): 80 | Blackgrass plant response rating (0-100) ([22]; 31 g ai/ha): 0 | Blackgrass plant response rating (0 to 100 scale) ([22]; 125 g ai/ha): 90 | Amaranth, Palmer plant response rating (0-100) ([23]; 31 g ai/ha): 40 | Amaranth, Palmer plant response rating (0 to 100 scale) ([23]; 125 g ai/ha): 100 | Foxtail, Green plant response rating (0-100) ([24]; 31 g ai/ha): 90 | Foxtail, Green plant response rating (0 to 100 scale) ([24]; 125 g ai/ha): 100 | Kochia plant response rating (0-100) (kochia (Bassia scoparia) [25]; 31 g ai/ha): 0 | Kochia plant response rating (0 to 100 scale) (kochia (Bassia scoparia) [25]; 125 g ai/ha): 90 | Wheat plant response rating (0-100) ([26]; 31 g ai/ha): 80 | Wheat plant response rating (0 to 100 scale) ([26]; 125 g ai/ha): 90 | Barnyardgrass plant response rating (0-100) ([27]; 31 g ai/ha): 50 | Barnyardgrass plant response rating (0 to 100 scale) ([27]; 125 g ai/ha): 100

Source: patent US20260285850A1, “SUBSTITUTED OXAZOLIDINONES AND IMIDAZOLINONES AS HERBICIDES” (FMC CORPORATION, priority 2023, published 2026)
